The target of assay [1] is T1, CD45 phosphatase (Homo sapiens, UniProt P08575).
T1 construct: endogenous in cells; host or cells: THP1 cells
T1 sequence (P08575 26-1306): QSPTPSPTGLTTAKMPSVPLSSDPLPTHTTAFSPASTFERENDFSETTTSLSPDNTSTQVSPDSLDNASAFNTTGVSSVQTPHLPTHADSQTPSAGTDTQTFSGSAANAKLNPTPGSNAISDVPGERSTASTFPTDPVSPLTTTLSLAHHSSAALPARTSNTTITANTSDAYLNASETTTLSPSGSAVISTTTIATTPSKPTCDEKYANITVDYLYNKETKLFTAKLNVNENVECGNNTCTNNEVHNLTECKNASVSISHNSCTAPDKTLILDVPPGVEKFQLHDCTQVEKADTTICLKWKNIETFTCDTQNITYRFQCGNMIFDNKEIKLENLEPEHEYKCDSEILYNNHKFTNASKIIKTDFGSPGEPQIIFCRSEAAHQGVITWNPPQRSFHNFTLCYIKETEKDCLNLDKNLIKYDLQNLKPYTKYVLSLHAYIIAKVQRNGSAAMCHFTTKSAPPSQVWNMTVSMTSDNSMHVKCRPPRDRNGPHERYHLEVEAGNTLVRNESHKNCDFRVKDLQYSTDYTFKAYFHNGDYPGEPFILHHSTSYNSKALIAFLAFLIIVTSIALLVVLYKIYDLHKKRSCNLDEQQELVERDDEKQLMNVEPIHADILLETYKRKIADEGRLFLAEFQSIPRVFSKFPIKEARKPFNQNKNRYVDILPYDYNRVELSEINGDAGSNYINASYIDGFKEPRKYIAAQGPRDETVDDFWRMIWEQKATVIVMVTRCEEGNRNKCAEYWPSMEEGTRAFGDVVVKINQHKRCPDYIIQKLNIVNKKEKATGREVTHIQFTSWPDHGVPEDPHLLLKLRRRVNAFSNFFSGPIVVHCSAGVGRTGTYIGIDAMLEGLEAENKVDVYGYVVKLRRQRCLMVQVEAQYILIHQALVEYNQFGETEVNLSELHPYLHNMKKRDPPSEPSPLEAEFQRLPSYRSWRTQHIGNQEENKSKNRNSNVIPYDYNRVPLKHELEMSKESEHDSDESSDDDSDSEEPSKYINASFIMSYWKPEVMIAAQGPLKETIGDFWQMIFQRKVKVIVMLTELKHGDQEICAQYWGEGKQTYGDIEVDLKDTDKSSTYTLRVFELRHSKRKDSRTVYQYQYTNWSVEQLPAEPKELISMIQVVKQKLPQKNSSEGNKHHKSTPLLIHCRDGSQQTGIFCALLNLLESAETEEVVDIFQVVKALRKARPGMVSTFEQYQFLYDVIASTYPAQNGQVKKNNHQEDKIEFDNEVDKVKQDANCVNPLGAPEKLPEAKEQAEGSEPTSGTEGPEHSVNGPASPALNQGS
Nature of the assay: CD45 phosphatase activity in THP1 cells. Format: cell-based. To be noted: peptide added to THP1 cells; FIG. 2.

Assay [2] concerns the target T2, interaction between CD33 and CD45 (Homo sapiens, UniProt P08575).
T2 construct: in the human myeloid cell line THP1 using the proximity ligation assay; endogenous in cells; host or cells: THP1 (human myeloid cell line)
T2 sequence (P08575 26-1306): T1 sequence (P08575 26-1306)
Nature of the assay: proximity ligation assay of CD33-CD45 interaction in THP1 cells. Format: cell-based. The note with it: human myeloid cell line THP1; peptide 0-0.1 mM; FIG. 1. The text has this:
To test if the binding interaction between CD33 and any of its ligands is involved in AD pathogenesis, a 12-mer peptide (RMESKTEKWMER; SEQ ID NO: 1) was designed based on the structure of the sialic-acid binding domain of siglecs (Sialic acid-binding immunoglobulin-type lectins).

Assay [3] relates to exogenous Amyloid-beta 1-42 in mouse brain. Nature of the assay: exogenous amyloid-beta 1-42 clearance in mouse brain, peptide delivered to brain ventricles by osmotic mini pump. Format: in vivo. To be noted: ICV via osmotic mini pump, 10 uM solution, approx. 3 ug/kg daily, 28 days, Amyloid-beta 647, confocal microscopy, FIG. 3A/3B. The protocol: Third, by leveraging an in vivo model of microglia-mediated amyloid uptake in the mouse brain, and using osmotic mini pumps implanted subcutaneously to deliver the peptide through a catheter connected to the brain ventricles, it was shown that the inhibitory peptide SEQ ID NO:1 (peptide #1) reduces the amount of exogenous amyloid-beta 1-42 detectable in the brains of animals (FIG. 3A and FIG. 3B). 10 uM peptide solutions, containing SEQ ID NO: 1 (peptide #1) or SEQ ID NO: 2 (peptide #4), were added to osmotic mini pumps to permit daily delivery of approximately 5 ul of dosing solution or 3 ug/kg of peptide. A fluorescently labelled analog of amyloid beta 1-42 (Amyloid-beta 647) was delivered via ICV infusion. Confocal microscopy was later used to quantify signal in hippocampal sections. […] By the end of the treatment (28 days), brain sections were performed and analyzed by confocal microscope.
Hippocampus areas are shown of the three treated mice (FIG. 3A). Quantification of Amyloid-beta 1-42 in the hippocampus from the three mouse groups are shown with a marked decrease of Amyloid-beta 1-42 in mice that received Peptide #1 but not those that were treated with Peptide #4 (FIG. 3B). […] By the end of the treatment (28 days), brain sections were analyzed by confocal microscope.

Assay [4] shares this test system. Nature of the assay: exogenous amyloid-beta 1-42 clearance in mouse brain, peptide delivered subcutaneously. To be noted: peptide subcutaneous via pump, A-beta ICV, 28 days, confocal microscopy, FIG. 4. It is filed as in vivo. As to the method:
Hippocampus areas are shown of the three treated mice (FIG. 3A). Quantification of Amyloid-beta 1-42 in the hippocampus from the three mouse groups are shown with a marked decrease of Amyloid-beta 1-42 in mice that received Peptide #1 but not those that were treated with Peptide #4 (FIG. 3B). […] The fluorescent labelled A-beta (red) was directly administered to the brain via a mini osmotic pump implanted subcutaneously and connected to the brain ventricles through a catheter for continuous drug delivery. The peptide (SEQ ID NO: 1) was delivered subcutaneously via another pump. By the end of the treatment (28 days), brain sections were analyzed by confocal microscope.

The subject of assay [5] is endogenous Amyloid-beta 1-42 in 5×FAD mice. Nature of the assay: endogenous amyloid-beta 1-42 in brains of 5×FAD mice. It is filed as in vivo, mouse. The note with it: ICV via osmotic mini pump, 28 days, versus vehicle, FIG. 5A/5B. From the text: Fourth, by leveraging a second in vivo model of microglia-mediated amyloid uptake in the mouse brain, and using osmotic mini pumps implanted subcutaneously to deliver the peptide through a catheter connected to the brain ventricles, it was shown that the inhibitory peptide SEQ ID NO:1 (peptide #1) reduces the amount of endogenous amyloid-beta 1-42 detectable in the brains of 5×FAD animals (FIG. 5A and FIG. 5B). 5×FAD mice express human APP and PSEN1 transgenes that include five AD-linked mutations. These mice recapitulate many AD-related phenotypes and have a relatively early and aggressive presentation. Amyloid plaques, accompanied by gliosis, are seen in mice as young as two months of age. Neuron loss occurs in multiple brain regions, beginning at about 6 months in the areas with the most pronounced amyloidosis. Mice display a range of cognitive and motor deficits.
Peptide was directly administered to the brain via a mini osmotic pump implanted subcutaneously and connected to the brain ventricles through a catheter for continuous drug delivery. By the end of the treatment (28 days), brain sections were generated and analyzed by confocal microscope. A representative image from an animal in each of the three groups is shown (FIG. 5A). Quantification of E610 immunoreactivity in the hippocampus, reflective Amyloid-beta 1-42 levels, from the three mouse groups is shown.

Assay [6] concerns NeuN positive neurons in Layer 5 of the piriform cortex. The assay can be described thus: neuronal survival in 5×FAD mice given exogenous Amyloid-beta 1-42. Format: in vivo, mouse. The note with it: 5×FAD mice treated with exogenous Amyloid-beta 1-42; ICV via osmotic mini pump, 28 days; FIG. 6. The text has this: Fifth, in a modified version of this second in vivo model of Alzheimer's Disease, and using osmotic mini pumps implanted subcutaneously to deliver the peptide through a catheter connected to the brain ventricles, it was shown that the inhibitory peptide SEQ ID NO:1 (peptide #1) reduces neuronal loss in transgenic 5×FAD animals treated with exogenous Amyloid-beta 1-42 (FIG. 6). […] Peptide was directly administered to the brain via a mini osmotic pump implanted subcutaneously and connected to the brain ventricles through a catheter for continuous drug delivery. By the end of the treatment (28 days), brain sections were generated and analyzed by confocal microscope. Quantification of NeuN immunoreactivity in Layer 5 of the piriform cortex, reflective of neuronal number, from the three mouse groups is shown.

Consider “MESKTEKWMERI [SEQ ID NO: 2, reference compound]”, for which the CD45 phosphatase activity entry in assay [1] was “does not”.
On to RMESKTEKWMER [SEQ ID NO: 1], for which the “interaction between CD33 and CD45 (proximity ligation assay)” value in assay [2] is “reduces the interaction between CD33 and CD45”. Besides, the CD45 phosphatase activity entry in assay [1] was “leads to an increase in CD45 phosphatase activity”. For the same sequence, the “amount of exogenous Amyloid-beta 1-42 in hippocampus” value in assay [3] is given as “decreases the amount of exogenous Amyloid-beta 1-42 in vivo”. In assay [4], the “amount of exogenous Amyloid-beta 1-42 in brain parenchyma” value is listed as “decreases the amount of exogenous Amyloid-beta 1-42 in brain”. The “amount of endogenous Amyloid-beta 1-42 (E610 immunoreactivity in hippocampus)” value in assay [5] is on record as “decreases the amount of endogenous Amyloid-beta 1-42 in vivo”. Besides, the “neuronal survival (NeuN immunoreactivity in Layer 5 of the piriform cortex)” value in assay [6] was “increased neuronal survival in vivo”.

These data come from US20230331780A1, “COMPOSITIONS AND METHODS FOR THE TREATMENT OF ALZHEIMER'S DISEASE” (The Trustees of Columbia University in the City of New York, priority 2020, published 2023).
